Laboratory results published in patent EP2468882A1, “Aurora kinase polypeptides for identifying fungicidal compounds” (Bayer CropScience AG, priority 2010, dated 2012).

Legend:
U. maydis = assay: ED50 determination, growth inhibition of U. maydis in liquid culture; format: cell-based; conditions: concentration at which growth in liquid culture is inhibited by 50%; 3 days, 20°C, OD at 600 nm
Experimental: Der ED50 Wert ist die Konzentration einer Verbindung, bei der das Wachstum von U. maydis in Flüssigkultur zu 50% gehemmt wird. Verbindungen für ED50-Bestimmungen wurden in Methanol + 4 g/l Emulgator (z. B. PS 16 von Bayer AG) zu 666,67facher Endkonzentration gelöst. 15 µl jeder Verbindung werden in 7 Konzentrationen bei getrocknet. Flüssigkulturen von U. maydis in Difco Potato Dextrose Broth (BD, Cat No #254920) wurden auf eine OD600 ~ 0,1 eingestellt und je 200 µl dieser Suspension zugegeben. Die Kulturen wurden 3 Tage bei 20°C, 600 Upm und 80% Luftfeuchte inkubiert. Anschließend wurde die OD bei 600 nm bestimmt und gegen die Inhibitor-Konzentration der Verbindung 1 aufgetragen. Als positive Kontrolle wurde Euparen (Dichlorfluarid; CAS 1085-98-9) verwendet, als negative Kontrolle Methanol + PS 16 ohne Inhibitor. Aus der gemessenen OD600 wurde der ED50-Wert bestimmt (Abb. 5). Der ED50 Wert der Verbindung 1 wurde zu 21,8 ppm ermittelt, der ED50 Wert von Dichlorfluarid wurde zu 1 ppm ermittelt. [formula] [formula] [formula] [formula] [formula] [formula] [formula] [formula] [formula] [formula] [formula] [formula] [formula] [formula] [formula] [formula] [formula] [formula] [formula] [formula] [formula] [formula] [formula] [formula] [formula] [formula] [formula] [formula]

[1] = biological target: Komplex aus SEQ ID NO: 12 und SEQ ID NO: 16 (Mycosarcoma maydis (Ustilago maydis), UniProt A0A0D1E894); assay: IMAP fluorescence polarisation assay, inhibition of Aurora kinase (AK/AKA complex); format: biochemical, U. maydis; conditions: final enzyme concentration 2 ng/µl, final ATP 35 µM, reaction time 50 min
Komplex aus SEQ ID NO: 12 und SEQ ID NO: 16, sequence (A0A0D1E894 entry or part of it): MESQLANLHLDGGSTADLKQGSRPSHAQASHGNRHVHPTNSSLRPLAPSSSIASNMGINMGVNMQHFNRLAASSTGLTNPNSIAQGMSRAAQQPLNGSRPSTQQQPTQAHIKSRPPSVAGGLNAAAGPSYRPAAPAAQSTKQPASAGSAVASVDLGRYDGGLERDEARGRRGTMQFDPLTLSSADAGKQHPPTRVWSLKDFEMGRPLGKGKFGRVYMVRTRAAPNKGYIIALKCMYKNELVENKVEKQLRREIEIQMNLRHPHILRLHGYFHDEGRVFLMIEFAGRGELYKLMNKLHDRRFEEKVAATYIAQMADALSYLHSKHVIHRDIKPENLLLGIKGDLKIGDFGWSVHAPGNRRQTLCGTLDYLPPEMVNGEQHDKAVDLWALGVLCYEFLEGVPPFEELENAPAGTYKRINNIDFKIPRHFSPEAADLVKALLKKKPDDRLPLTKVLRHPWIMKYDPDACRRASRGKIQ
Description: Assay 3: Für den kommerziell erhältlichen IMAP Assay (Molecular Devices) sind 2 Substrate für humane Aurorakinasen (Kemptide, Cat #R7331, Sequenz 5TAMRA-LRRASLG-OH und PKAtide, Cat #R7250, Lot #130188, Sequenz 5FAM-GRTGRRNSI-NH2) kommerziell erwerbbar. Der Assay wurde nach Herstellerangaben durchgeführt. • IMAP Progressive Binding Reagent: Cat #R7284, Lot #143859 • IMAP Progressive Binding Buffer A: Cat #R7285, Lot #42898 • IMAP 5x Reaction Buffer: Cat #R7206, Lot #33060
Der IMAP Fluoreszenz-Polarisations-Assay (Molecular Devices) beruht auf der spezifschen, hochafmen Interaktion zwischen Phosphatgruppen und trivalenten Metallionen. Durch die Kinasereaktion wird ein fluoreszentes Substrat phosphoryliert, welches daraufhin von den in der Stop-Lösung enthaltenen Metall-Kügelchen spezifisch gebunden wird. Durch diese Interaktion erhöht sich die Fluoreszenzpolarisation, was die Bestimmung der Kinaseaktivität ermöglicht. Der Assay wurde nach Angaben des Herstellers wie folgt ausgeführt: • 1 Vol. Inhibitor in 4% DMSO bzw. 4% DMSO • 1 Vol. Enzymlösung • 2 Vol. ATP/Substrat • 12 Vol. Stoplösung • Inkubation bei RT 30 min.
Enzymlösung: z. […]

Compound	ED50 Wert (U. maydis)	IC50 [1] [nM]
CN(C)S(=O)(=O)N(SC(F)(Cl)Cl)c1ccccc1 [Dichlorfluarid]	1 ppm	
CN[C@@H]1C[C@H]2O[C@@](C)([C@@H]1OC)n1c3ccccc3c3c4c(c5c6ccccc6n2c5c31)C(=O)NC4 [Staurosporin]		2.1
COCCOc1ccc(Nc2ncc(Cl)c(NC3CC3)n2)cc1 [Verbindung 1]	21,8 ppm	8.8
